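1) Cells in 96-well plates. 2) Compound, 48 h, 5 concentrations. 3) Linear interpolation between surrounding doses. 4) Unreached endpoint = highest concentration. The concentration for 50% growth inhibition is given as GI50. TGI marks complete inhibition of growth.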
Tests used:
Test in all cases: NCI-60 cell line screen, 48 h
OVCAR-3 ovarian = tested on: OVCAR-3 ovarian
NCI-H522 lung = tested on: NCI-H522 lung
OVCAR-5 ovarian = tested on: OVCAR-5 ovarian
UACC-62 melanoma = tested on: UACC-62 melanoma
IGROV1 ovarian = tested on: IGROV1 ovarian
SF-539 CNS = tested on: SF-539 CNS
SK-OV-3 ovarian = tested on: SK-OV-3 ovarian
MALME-3M melanoma = tested on: MALME-3M melanoma
OVCAR-4 ovarian = tested on: OVCAR-4 ovarian
A498 renal = tested on: A498 renal

| SMILES | TGI (OVCAR-3 ovarian) | TGI (NCI-H522 lung) | TGI (OVCAR-5 ovarian) | TGI (UACC-62 melanoma) | TGI (IGROV1 ovarian) | TGI (SF-539 CNS) | TGI (SK-OV-3 ovarian) | TGI (MALME-3M melanoma) | TGI (OVCAR-4 ovarian) | TGI (A498 renal) | GI50 (NCI-H522 lung) | GI50 (IGROV1 ovarian) | GI50 (A498 renal) | GI50 (SF-539 CNS) | GI50 (SK-OV-3 ovarian) | GI50 (OVCAR-4 ovarian) |
| --- | --- | --- | --- | --- | --- | --- | --- | --- | --- | --- | --- | --- | --- | --- | --- | --- |
| COc1ccc(N=C2C(=Nc3ccc(OC)cc3)N(S(=O)(=O)c3ccccc3)C(=S)N2c2ccc(OC)cc2)cc1 | > 100 µM | > 100 µM | > 100 µM | > 100 µM | > 100 µM | > 100 µM | > 100 µM | – | – | – | – | – | – | – | – | – |
| CC1C(c2ccc3c(c2)OCO3)c2cc3c(cc2OC1N1CCCCC1)OCO3 (stereo unspecified) | > 100 µM | > 100 µM | > 100 µM | > 100 µM | > 100 µM | > 100 µM | – | – | – | – | – | – | – | – | – | – |
| O=C(NCCCCNCCCNC(=O)c1cc(-c2ccccc2)nc2ccccc12)c1cc(-c2ccccc2)nc2ccccc12 | 2.99 µM | 3.08 µM | – | 3.9 µM | 2.88 µM | 3.81 µM | – | 3.23 µM | – | – | – | – | – | – | – | – |
| CCOC(=O)COc1c(OC)cc(C2C3=C(COC3=O)Oc3cc4c(cc32)OCO4)cc1OC (stereo unspecified) | 78.4 µM | 3.14 µM | > 100 µM | > 31.6 µM | 33.7 µM | 43 µM | > 57.5 µM | > 100 µM | 24.9 µM | – | – | – | – | – | – | – |
| COc1cc(/C=C/C(=O)N[C@@H]2C(=O)N3[C@@H]2SC(C)(C)[C@@H]3C(=O)O)cc(OC)c1OC | > 100 µM | > 100 µM | > 100 µM | > 100 µM | – | > 100 µM | > 100 µM | – | > 100 µM | > 100 µM | – | – | – | – | – | – |
| CCOC(=O)/C=C(\N=P(c1ccccc1)(c1ccccc1)c1ccccc1)C(F)(F)C(F)(F)C(F)(F)C(F)(F)C(F)(F)F | > 100 µM | – | > 100 µM | > 100 µM | > 100 µM | > 100 µM | > 100 µM | > 100 µM | > 100 µM | 72.4 µM | – | – | – | – | – | – |
| CSc1nncc2[nH]cnc12 | > 100 µM | – | > 100 µM | > 100 µM | > 100 µM | > 100 µM | – | – | – | > 100 µM | – | – | – | – | – | – |
| COC(OC)(c1ccccc1)C(I)I | 28.7 µM | 6.98 µM | 33.1 µM | 26.6 µM | 27.4 µM | 17.6 µM | 16.7 µM | 13.3 µM | 27.4 µM | – | – | – | – | – | – | – |
| N#C[C@@]12CCCC(=O)[C@@H]1[C@H]1CCC[C@H]12 | 23.7 µM | – | 25.7 µM | 58 µM | 32.2 µM | 59.9 µM | 32.8 µM | 32.3 µM | 58.6 µM | 31.5 µM | – | – | – | – | – | – |
| O=c1c(-c2ccccc2Cl)coc2cc(F)ccc12 | > 100 µM | 36.5 µM | > 100 µM | 73.6 µM | 51.5 µM | 31.6 µM | > 100 µM | – | > 100 µM | 47.2 µM | – | – | – | – | – | – |
| CCc1n[nH]c(=O)n1NC(=O)c1ccccc1C(=O)O | > 100 µM | > 100 µM | > 100 µM | > 100 µM | > 100 µM | > 100 µM | > 100 µM | – | > 100 µM | – | – | – | – | – | – | – |
| Cc1cc(O)c(/C=N/c2nc(-c3cccc([N+](=O)[O-])c3)cs2)c(=O)o1 | > 100 µM | – | > 100 µM | > 100 µM | > 100 µM | > 100 µM | > 100 µM | – | > 100 µM | – | – | – | – | – | – | – |
| C/C(=N\O)c1cccc(Nc2nc3ccccc3c3occc23)c1 | 31.8 µM | – | 30.7 µM | 5.22 µM | – | 29.6 µM | 28.7 µM | 28.9 µM | 30.2 µM | 29.2 µM | – | – | – | – | – | – |
| CSc1ccc(/C=C2\N=C(c3ccccc3)N(c3nc4c(Cl)cc(Cl)cc4s3)C2=O)cc1 | 40 µM | – | > 100 µM | 73.1 µM | > 100 µM | > 100 µM | 84.9 µM | – | 58.4 µM | 40.8 µM | – | – | – | – | – | – |
| CC1(C)C(=O)C2(OS(=O)(=O)C(F)(F)F)CCC1C2 (stereo unspecified) | > 100 µM | – | > 100 µM | > 100 µM | > 100 µM | > 100 µM | > 100 µM | > 100 µM | > 100 µM | > 100 µM | – | – | – | – | – | – |
| COc1ccc2c(c1)CCCN1CCc3cc(OC)c(OC)cc3C21 (stereo unspecified) | > 100 µM | – | > 100 µM | > 100 µM | > 100 µM | > 100 µM | > 100 µM | > 100 µM | – | – | – | – | – | – | – | – |
| O=c1c(O)c(-c2cc(O)c(O)cc2O)oc2cc(O)c(C3OC(CO)C(O)C(O)C3O)c(O)c12 (stereo unspecified) | > 100 µM | > 100 µM | > 100 µM | > 100 µM | > 100 µM | > 100 µM | > 100 µM | – | > 100 µM | > 100 µM | – | – | – | – | – | – |
| COC(=O)c1cc2c3c(cc(O)c2[nH]1)N(C(=O)C1Cc2cc(OC)c(OC)c(OC)c2N1)CC3CCl (stereo unspecified) | – | < 0.01 µM | – | – | 0.98 µM | < 0.01 µM | < 0.01 µM | – | 0.845 µM | < 0.01 µM | < 0.01 µM | < 0.01 µM | < 0.01 µM | < 0.01 µM | < 0.01 µM | < 0.01 µM |

Reference: PubChem BioAssay (NCI)
